What was measured:
[1] = Radical scavenging activity against DPPH
Procedure: The experiments were performed as previously reported.

[2] = test system: oncogenic nuclear factor AP-1; assay: Basal AP-1-dependent transcriptional activity, luciferase reporter in JB6 Cl41 cells; assay type: cell-based; settings: Mus musculus; JB6 Cl41 cells with AP-1 luciferase reporter; after 12 h of treatment; read-out: inhibition of transcriptional activity of AP-1, IC50
Procedure: The effect of compounds 1–3 and 7 on the basal AP-1-dependent transcriptional activity was also studied using JB6 Cl41 cells stably expressing a luciferase reporter gene controlled by an AP-1-DNA binding sequence.
The effects of the compounds on the basal transcriptional activities of AP-1 were evaluated using the JB6 Cl41 cell line stably expressing a luciferase reporter gene controlled by an AP-1-DNA binding sequence. The experiments were performed as previously reported with slight modifications.

[3] = test system: CD-1 murine peritoneal macrophages; assay: Macrophage adhesion test; assay type: cell-based; settings: Mus musculus, 10 µM (non-toxic concentration), 2 h incubation at 37 °C
Procedure: Mice were sacrificed by cervical dislocation. Peritoneal macrophages were isolated using standard procedures. For this purpose, 3 mL of PBS (pH 7.4) was immediately injected into the peritoneal cavity and the body intensively palpated for 1–2 min. Then, the peritoneal fluid was aspirated with a syringe and transferred to Petri dishes. Petri dishes with the fluid were incubated at 37 °C for 1–2 h to facilitate attachment of peritoneal macrophages to the dish. Then, a cell monolayer was triply flushed with PBS (pH 7.4) to delete attendant lymphocytes, fibroblasts and erythrocytes. Subsequently, macrophages were removed from the surface of the dishes with a scraper and flow of a saline solution, and then placed on an ice bath until use. The working concentration of cells was usually 1–2 × 10^6 cells/mL. The number of adhered cells was estimated according to standard method with some modifications.
Twenty […] of test compound solutions (at non-toxic concentration 10 μM) and […] of macrophage suspension were added to 96-well flat-bottom plates. After incubation for 2 h at 37 °C, cells were fixed with 70% ethanol solution ([…] per well) for 15 min at RT. […] Finally, the SDS/trypan blue solution absorbance was detected spectrophotometrically at 590 nm using a plate reader. The percentage of adhered cells compared to the control level of Trypan blue absorbance was calculated. […]

[4] = Cytotoxicity towards CD-1 mouse splenocytes; assay type: cell-based; settings: assayed up to 100 µM, read-out: cytotoxicity against splenocytes IC50
Procedure: The effect of the compounds on the cells viability was evaluated using the MTS test, which is based on the reduction of MTS into its formazan product by alive cells. Cytotoxicity towards CD-I mouse splenocytes was determined according to Freshney. Hemolytic activity towards CD-I mouse erythrocytes was determined as previously described.

SMILES	IC50 [1] [µM]	inhibition at 10 µM [3] [%]	other results
O=C1O[C@H]([C@@H](O)CO)C(O)=C1O [Ascorbic acid, reference compound]	21.3	–	–
Cc1c(O)cc2c(c1O)CO[C@@]1(O[C@@H](C)CC[C@@H]1O)[C@@H]2O [compound 1, sargassopenilline A]	100	–	–
CC(=O)OC1C2=C(CO[C@@]13O[C@@H](C)C[C@H](O)[C@@H]3OC(C)=O)C(=O)C(C)(OC(C)=O)C(=O)C2 (stereo partly shown) [compound 3, sargassopenilline C]	–	–	IC50 [2]: 15 µM
CC(=O)OC1C2=C(CO[C@@]13O[C@@H](C)CC[C@@H]3OC(C)=O)C(=O)C(C)=C(O)C2=O (stereo partly shown) [compound 4, sargassopenilline D]	–	30 to 40	–
C[C@H]1C[C@H](O)C[C@@]2(CC3=C(CO2)C(=O)[C@](C)(O)[C@H](O)C3)O1 [compound 5, sargassopenilline E]	50	–	IC50 [4]: 38 µM
CC(=O)O[C@H]1CC[C@H](C)O[C@@]12OCC1=C(C[C@@H](O)[C@@](C)(O)C1=O)C2O (stereo partly shown) [compound 6, sargassopenilline F]	–	30 to 40	–
